Experimental data published in patent US20210393811A1, “Imaging Agents and Methods of Use” (Texas Heart Institute, priority 2018, published 2021).

How the values were obtained:
murine integrin α4β1 [1] = target: T1, murine integrin α4β1 (Mus musculus, UniProt P09055+Q00651); assay: 70Z3 cell adhesion to VCAM-1; type: cell-based
T1 construct: endogenous in cells; host or cells: 70Z3 cells

integrin α4β1 [2] = target: T2, integrin α4β1 (Homo sapiens, UniProt P05556+P13612); assay: K562(α4β1) cell adhesion to CS-1; type: cell-based; parameters: expressed in transfected cells; host or cells: K562(α4β1) cells
T2 sequence (P13612 34-1032): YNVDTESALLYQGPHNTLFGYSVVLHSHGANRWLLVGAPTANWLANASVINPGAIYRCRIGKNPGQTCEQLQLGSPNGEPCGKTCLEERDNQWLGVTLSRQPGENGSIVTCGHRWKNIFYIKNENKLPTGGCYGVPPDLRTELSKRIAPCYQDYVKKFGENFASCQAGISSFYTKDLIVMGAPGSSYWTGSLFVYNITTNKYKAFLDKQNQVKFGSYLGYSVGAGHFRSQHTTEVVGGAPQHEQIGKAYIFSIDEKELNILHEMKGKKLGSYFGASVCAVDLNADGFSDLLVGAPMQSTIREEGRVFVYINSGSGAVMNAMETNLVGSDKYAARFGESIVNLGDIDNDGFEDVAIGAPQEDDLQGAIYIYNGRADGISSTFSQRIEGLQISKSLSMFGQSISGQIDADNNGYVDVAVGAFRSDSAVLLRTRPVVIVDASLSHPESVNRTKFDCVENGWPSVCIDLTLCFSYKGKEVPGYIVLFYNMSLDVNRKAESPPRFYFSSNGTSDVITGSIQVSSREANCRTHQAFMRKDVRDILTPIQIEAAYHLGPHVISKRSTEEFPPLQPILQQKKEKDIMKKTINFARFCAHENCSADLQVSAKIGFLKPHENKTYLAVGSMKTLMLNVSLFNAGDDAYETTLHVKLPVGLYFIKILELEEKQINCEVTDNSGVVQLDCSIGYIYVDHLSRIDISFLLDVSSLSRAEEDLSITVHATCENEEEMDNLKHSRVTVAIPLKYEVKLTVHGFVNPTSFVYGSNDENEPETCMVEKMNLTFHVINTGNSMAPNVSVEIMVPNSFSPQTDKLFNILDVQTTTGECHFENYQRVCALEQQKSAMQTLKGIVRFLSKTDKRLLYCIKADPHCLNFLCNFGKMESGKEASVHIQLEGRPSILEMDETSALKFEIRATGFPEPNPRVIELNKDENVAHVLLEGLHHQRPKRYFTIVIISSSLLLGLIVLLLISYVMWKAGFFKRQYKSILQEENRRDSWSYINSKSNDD
T2 sequence (P05556 21-798): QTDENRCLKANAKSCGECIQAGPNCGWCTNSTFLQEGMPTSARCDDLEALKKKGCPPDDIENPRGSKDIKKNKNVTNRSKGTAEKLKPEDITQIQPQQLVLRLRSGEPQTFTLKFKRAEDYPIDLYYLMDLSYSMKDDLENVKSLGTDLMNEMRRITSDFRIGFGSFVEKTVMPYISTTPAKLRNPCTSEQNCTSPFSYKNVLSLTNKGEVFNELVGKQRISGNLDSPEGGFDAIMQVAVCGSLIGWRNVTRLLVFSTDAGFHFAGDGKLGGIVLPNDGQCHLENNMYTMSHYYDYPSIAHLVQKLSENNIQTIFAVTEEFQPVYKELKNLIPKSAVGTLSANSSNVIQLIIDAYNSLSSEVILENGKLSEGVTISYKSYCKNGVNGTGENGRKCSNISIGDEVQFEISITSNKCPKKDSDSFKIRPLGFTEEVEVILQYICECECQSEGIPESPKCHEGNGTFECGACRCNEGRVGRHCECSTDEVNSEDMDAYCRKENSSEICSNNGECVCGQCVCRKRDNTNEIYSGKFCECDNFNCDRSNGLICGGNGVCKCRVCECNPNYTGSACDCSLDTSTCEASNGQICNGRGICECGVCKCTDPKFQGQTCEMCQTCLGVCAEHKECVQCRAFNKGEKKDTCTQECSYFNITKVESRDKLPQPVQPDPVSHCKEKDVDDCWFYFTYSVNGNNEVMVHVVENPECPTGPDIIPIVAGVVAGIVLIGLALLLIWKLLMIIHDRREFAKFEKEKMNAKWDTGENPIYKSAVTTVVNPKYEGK
Source text: A. Structure of TBC3486. B. Structure of THI0510 (TBC3486 modified with conjugatable linker [TBC3486-conj] for functionalization with reactive dye and/or chelator reagents). C. TBC3486 and THI0510 inhibition of α4β1-K562 cell adhesion to the CS-1 sequence from fibronectin.
A. Conjugated THI375 analogue. B. THI375 analogue conjugated to the fluorescent dye sulfo-Cy5 (THI526). C. Activity of THI527, THI526, and TBC-4746 in K562-α4β1/CS-1 adhesion assays performed in Mn++.
First attempts to generate an integrin α4β1 imaging agent took advantage of the TBC3486 core scaffold. Modifications to the core scaffold were generated to determine an appropriate site to which imaging conjugates could be attached (FIG. 1). […] Next, imaging agents were attached to this conjugation site and their activities tested in cell adhesion assays.

integrin α4β1 [3] = target: T2, integrin α4β1; assay: K562(α4β1) cell adhesion to VCAM-1; type: cell-based; parameters: expressed in transfected cells; host or cells: K562(α4β1) cells
Experimental: A, B. Structure of THI520 and THI528. C. THI520 and THI0528 inhibition of α4β1-K562 cell adhesion to VCAM-1 (Mn++).
(§1) The core of this structure is different than that of TBC3486 (FIG. 3A). […] THI528 was tested for binding to integrin α4β1by flow cytometry (FIG. 4). Jurkat cells that express the integrin α4β1 (Jurkat(α4β1)), or mutagenized Jurkat cells that no longer express the integrin α4β1 (Jurkat(α4^null)), where incubated with increasing concentrations of THI528.

integrin α4β1 [4] = target: T2, integrin α4β1; assay: Flow cytometry binding to K562(α4β1) cells; parameters: expressed in transfected cells; host or cells: K562(α4β1) cells; settings: cations Mn
integrin α4β1 [5] = target: T2, integrin α4β1; assay: Flow cytometry binding to Jurkat cells; settings: for IC50: Jurkat, Flow Cytometry, Human
Experimental: B. Individual histograms of 10 nM dose of THI528±EDTA.
as §1

murine integrin α4β1 [6] = target: T1, murine integrin α4β1; assay: Flow cytometry binding to 70Z3 cells; settings: 70Z3, Flow Cytometry, cations Mn
[7] = 70Z3, substrate VCAM-1, cations Ca/Mg
[8] = 70Z3, substrate VCAM-1, cations Mn
[9] = K562(α4β1), substrate CS-1, cations Mn, Human
[10] = K562(α4β1), substrate VCAM-1, cations Ca/Mg, Human (low affinity α4β1 adhesion assay), read-out: Activity (IC50) (converted)

T1 sequence (Q00651 41-1039): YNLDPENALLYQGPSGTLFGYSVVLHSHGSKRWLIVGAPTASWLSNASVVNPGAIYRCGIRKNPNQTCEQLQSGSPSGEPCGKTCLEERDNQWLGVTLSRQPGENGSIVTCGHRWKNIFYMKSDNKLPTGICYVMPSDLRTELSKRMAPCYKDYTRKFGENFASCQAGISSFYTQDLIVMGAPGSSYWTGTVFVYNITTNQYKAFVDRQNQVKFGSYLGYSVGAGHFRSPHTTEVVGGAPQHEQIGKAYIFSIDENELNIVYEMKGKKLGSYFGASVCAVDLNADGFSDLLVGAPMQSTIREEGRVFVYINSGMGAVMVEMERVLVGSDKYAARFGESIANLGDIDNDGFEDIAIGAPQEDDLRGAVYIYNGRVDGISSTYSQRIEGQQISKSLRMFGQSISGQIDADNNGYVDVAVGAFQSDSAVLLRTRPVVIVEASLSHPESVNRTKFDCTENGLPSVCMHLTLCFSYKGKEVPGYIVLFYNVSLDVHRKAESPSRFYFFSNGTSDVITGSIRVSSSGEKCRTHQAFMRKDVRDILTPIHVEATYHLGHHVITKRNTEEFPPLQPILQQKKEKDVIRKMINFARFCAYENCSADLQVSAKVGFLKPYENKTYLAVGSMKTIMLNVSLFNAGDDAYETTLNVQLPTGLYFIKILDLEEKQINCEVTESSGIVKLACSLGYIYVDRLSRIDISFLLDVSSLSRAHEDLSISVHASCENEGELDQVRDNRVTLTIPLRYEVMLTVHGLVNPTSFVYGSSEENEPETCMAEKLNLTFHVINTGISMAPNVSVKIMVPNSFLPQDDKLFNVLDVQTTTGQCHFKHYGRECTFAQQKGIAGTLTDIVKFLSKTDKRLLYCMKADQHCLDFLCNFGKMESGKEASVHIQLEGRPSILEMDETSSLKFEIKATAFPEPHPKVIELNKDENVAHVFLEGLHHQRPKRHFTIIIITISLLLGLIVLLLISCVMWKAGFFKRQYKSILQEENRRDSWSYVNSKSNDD
T1 sequence (P09055 21-798): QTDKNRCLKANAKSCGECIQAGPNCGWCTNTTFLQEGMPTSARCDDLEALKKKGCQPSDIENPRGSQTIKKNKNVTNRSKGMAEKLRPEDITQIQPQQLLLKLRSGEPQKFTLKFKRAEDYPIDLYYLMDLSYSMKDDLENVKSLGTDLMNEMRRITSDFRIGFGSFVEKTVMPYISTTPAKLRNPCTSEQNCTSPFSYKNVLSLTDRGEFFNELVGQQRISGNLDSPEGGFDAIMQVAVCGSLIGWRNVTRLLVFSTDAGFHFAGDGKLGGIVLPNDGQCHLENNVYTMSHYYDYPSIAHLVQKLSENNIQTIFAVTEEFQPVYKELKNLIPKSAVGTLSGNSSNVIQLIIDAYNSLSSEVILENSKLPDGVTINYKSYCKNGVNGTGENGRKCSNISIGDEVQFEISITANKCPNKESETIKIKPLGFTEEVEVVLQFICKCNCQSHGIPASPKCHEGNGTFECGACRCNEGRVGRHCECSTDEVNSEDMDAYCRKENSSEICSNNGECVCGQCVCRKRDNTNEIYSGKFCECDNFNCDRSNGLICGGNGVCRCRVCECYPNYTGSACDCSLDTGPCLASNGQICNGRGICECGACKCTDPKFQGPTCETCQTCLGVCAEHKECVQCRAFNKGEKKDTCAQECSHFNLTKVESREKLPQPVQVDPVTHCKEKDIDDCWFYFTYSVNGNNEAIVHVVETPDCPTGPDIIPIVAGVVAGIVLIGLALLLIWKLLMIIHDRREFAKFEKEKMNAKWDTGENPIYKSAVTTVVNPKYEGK

Compound | IC50 (murine integrin α4β1 [1]; [7]) [nM] | IC50 (murine integrin α4β1 [1]; [8]) [nM] | IC50 (integrin α4β1 [2]; [9]) [nM] | IC50 (integrin α4β1 [3]; [10]) [nM] | IC50 (integrin α4β1 [5]; cations Mn) [nM] | other results
Cc1ccc([C@H](CC(=O)O)NC(=O)Nc2c(O)c(C)cn(Cc3ccccc3Cl)c2=O)cc1 [THI375] | 10300 | 127 | 2.2 ± 0.53 | 810 |  | IC50 (integrin α4β1 [3]; K562(α4β1), substrate VCAM-1, cations Mn, Human, read-out: Activity (IC50) (converted)): 1.4 nM
C[N+]1=C(/C=C/C=C/C=C2/N(CCCCCC(=O)NCCCCCC(=O)NCCCC[C@@H](NC(=O)N[C@H](CC(=O)O)c3ccc4c(c3)OCO4)C(=O)N(Cc3cccs3)Cc3cccs3)c3ccc(S(=O)(=O)[O-])cc3C2(C)C)C(C)(C)c2cc(S(=O)(=O)O)ccc21 [THI517] |  |  | 1700 ± 1000 |  |  | IC50 (integrin α4β1 [4]): > 1000 nM
CCOc1cccc([C@H](CC(=O)[O-])NC(=O)Nc2c([O-])c(C)cn(Cc3c(Cl)cccc3OCC)c2=O)c1.[Na+].[Na+] [THI520] | 129 | 0.75 | 0.11 ± 0.04 | 6.3 ± 3.1 |  | activity in high affinity assays (integrin α4β1 [2]; high affinity α4β1 adhesion assays): pM activity
CCOc1cccc([C@H](CC(=O)O)NC(=O)Nc2c(OCCCCCCNC(=O)CCCCC[N+]3=C(/C=C/C=C/C=C4/N(C)c5ccc(S(=O)(=O)[O-])cc5C4(C)C)C(C)(C)c4cc(S(=O)(=O)[O-])ccc43)c(C)cn(Cc3c(Cl)cccc3OCC)c2=O)c1.[Na+] [THI528] |  |  |  |  | 0.069 | antagonist activity after conjugation to sulfo-Cy5 (integrin α4β1 [3]; compared with THI520): no apparent loss in antagonist activity; IC50 (integrin α4β1 [3]; n=3, same value as Table 2 K562(α4β1)/VCAM-1/Mn, read-out: a4b1 IC50): 0.519 ± 0.097 nM; Kd (integrin α4β1 [5]; Jurkat(α4β1) cells, flow cytometry, n=1, read-out: apparent Kd): 0.26 nM; IC50 (integrin α4β1 [5]; cations Ca/Mg): 0.202 nM; binding to Jurkat cells expressing α4β1 (integrin α4β1 [5]; flow cytometry, increasing concentrations): Specific and saturable binding; binding in presence of EDTA or to Jurkat cells lacking α4β1 (integrin α4β1 [5]; flow cytometry, EDTA or Jurkat(α4β1) cells as printed): no detectable binding; IC50 (murine integrin α4β1 [6]): 0.06 nM
C[N+]1=C(/C=C/C=C/C=C2/N(CCCCCC(=O)NCCCCCC(=O)O)c3ccc(S(=O)(=O)[O-])cc3C2(C)C)C(C)(C)c2cc(S(=O)(=O)[O-])ccc21.[Na+] [THI529] |  |  |  |  |  | Activity (IC50) (integrin α4β1 [2]; K562(α4β1), substrate CS-1, cations Mn, Human, result in words): No Activity (n = 3) K562(α4β1)
CCOc1cccc([C@H](CC(=O)O)NC(=O)Nc2c(OCCCCCCNC(=O)C(CNC(=O)C(CNC(=O)CCCCC[N+]3=C(/C=C/C=C/C=C4/N(C)c5ccc(S(=O)(=O)[O-])cc5C4(C)C)C(C)(C)c4cc(S(=O)(=O)O)ccc43)S(=O)(=O)O)S(=O)(=O)O)c(C)cn(Cc3c(Cl)cccc3OCC)c2=O)c1 (stereo partly shown) [THI540] |  |  |  |  | 0.078 ± 0.037 | 
